Measurements from paper PMC9719519, “Non-classical ferroptosis inhibition by a small molecule targeting PHB2” (Nature Communications, 2022).

Legend:
Aurora-A(h) = biological target: T1, Aurora-A(h) (Homo sapiens, UniProt O14965); test: biochemical; parameters: Eurofins recombinant human kinase profiling, remaining kinase activity as % of control, 10 uM ATP; conditions: ATP 10 uM; read-out: %Ctrl@10 μM
T1 construct: gene AURKA
Procedure, shortened: (§1)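 Recombinant human kinases, 401 in total, screened using an outsourced kinase profiling assay.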

SRMS(h) = SRMS(h) (Homo sapiens, UniProt Q9H3Y6); test: biochemical; parameters: Eurofins recombinant human kinase profiling, remaining kinase activity as % of control, 10 uM ATP; conditions: ATP 10 uM; read-out: %Ctrl@10 μM
Procedure, shortened: as §1

Flt4(h) = Flt4(h) (Homo sapiens, UniProt P35916); test: biochemical; parameters: Eurofins recombinant human kinase profiling, remaining kinase activity as % of control, 10 uM ATP; conditions: ATP 10 uM; read-out: %Ctrl@10 μM
Procedure, shortened: as §1

SLK(h) = SLK(h) (Homo sapiens, UniProt Q9H2G2); test: biochemical; parameters: Eurofins recombinant human kinase profiling, remaining kinase activity as % of control, 10 uM ATP; conditions: ATP 10 uM; read-out: %Ctrl@10 μM
Procedure, shortened: as §1

EphA2(h) = EphA2(h) (Homo sapiens, UniProt P29317); test: biochemical; parameters: Eurofins recombinant human kinase profiling, remaining kinase activity as % of control, 10 uM ATP; conditions: ATP 10 uM; read-out: %Ctrl@10 μM
Procedure, shortened: as §1

SAPK2b(h) = biological target: T2, SAPK2b(h) (Homo sapiens, UniProt Q15759); test: biochemical; parameters: Eurofins recombinant human kinase profiling, remaining kinase activity as % of control, 10 uM ATP; conditions: ATP 10 uM; read-out: %Ctrl@10 μM
T2 construct: gene MAPK11
Procedure, shortened: as §1

TNIK(h) = TNIK(h) (Homo sapiens, UniProt Q9UKE5); test: biochemical; parameters: Eurofins recombinant human kinase profiling, remaining kinase activity as % of control, 10 uM ATP; conditions: ATP 10 uM; read-out: %Ctrl@10 μM
Procedure, shortened: as §1

TGFBR1(h) = TGFBR1(h) (Homo sapiens, UniProt P36897); test: biochemical; parameters: Eurofins recombinant human kinase profiling, remaining kinase activity as % of control, 10 uM ATP; conditions: ATP 10 uM; read-out: %Ctrl@10 μM
Procedure, shortened: as §1

LRRK2(h) = LRRK2(h) (Homo sapiens, UniProt Q5S007); test: biochemical; parameters: Eurofins recombinant human kinase profiling, remaining kinase activity as % of control, 10 uM ATP; conditions: ATP 10 uM; read-out: %Ctrl@10 μM
Procedure, shortened: as §1

FAK(h) = biological target: T3, FAK(h) (Homo sapiens, UniProt Q05397); test: biochemical; parameters: Eurofins recombinant human kinase profiling, remaining kinase activity as % of control, 10 uM ATP; conditions: ATP 10 uM; read-out: %Ctrl@10 μM
T3 construct: gene PTK2
Procedure, shortened: as §1

MuSK(h) = MuSK(h) (Homo sapiens, UniProt O15146); test: biochemical; parameters: Eurofins recombinant human kinase profiling, remaining kinase activity as % of control, 10 uM ATP; conditions: ATP 10 uM; read-out: %Ctrl@10 μM
Procedure, shortened: as §1

CDK16/cyclinY(h) = CDK16/cyclinY(h) (Homo sapiens, UniProt Q00536); test: biochemical; parameters: Eurofins recombinant human kinase profiling, remaining kinase activity as % of control, 10 uM ATP; conditions: ATP 10 uM; read-out: %Ctrl@10 μM
Procedure, shortened: as §1

VRK2(h) = VRK2(h) (Homo sapiens, UniProt Q86Y07); test: biochemical; parameters: Eurofins recombinant human kinase profiling, remaining kinase activity as % of control, 10 uM ATP; conditions: ATP 10 uM; read-out: %Ctrl@10 μM
Procedure, shortened: as §1

CK2(h) = biological target: T4, CK2(h) (Homo sapiens, UniProt P68400); test: biochemical; parameters: Eurofins recombinant human kinase profiling, remaining kinase activity as % of control, 10 uM ATP; conditions: ATP 10 uM; read-out: %Ctrl@10 μM
T4 construct: gene CSNK2A1
Procedure, shortened: as §1

MAPKAP-K2(h) = biological target: T5, MAPKAP-K2(h) (Homo sapiens, UniProt P49137); test: biochemical; parameters: Eurofins recombinant human kinase profiling, remaining kinase activity as % of control, 10 uM ATP; conditions: ATP 10 uM; read-out: %Ctrl@10 μM
T5 construct: gene MAPKAPK2
Procedure, shortened: as §1

MSK2(h) = biological target: T6, MSK2(h) (Homo sapiens, UniProt O75676); test: biochemical; parameters: Eurofins recombinant human kinase profiling, remaining kinase activity as % of control, 10 uM ATP; conditions: ATP 10 uM; read-out: %Ctrl@10 μM
T6 construct: gene RPS6KA4
Procedure, shortened: as §1

CDK12/cyclinK(h) = CDK12/cyclinK(h) (Homo sapiens, UniProt Q9NYV4); test: biochemical; parameters: Eurofins recombinant human kinase profiling, remaining kinase activity as % of control, 10 uM ATP; conditions: ATP 10 uM; read-out: %Ctrl@10 μM
Procedure, shortened: as §1

prohibitin 2 (PHB2) = prohibitin 2 (PHB2) (Homo sapiens, UniProt Q99623); test: SPR on purified recombinant PHB2 […]-194; DSF shift […] °C; DARTS in cells; assay type: binding; parameters: PHB2 1–194 (6× His tag)
prohibitin 2 (PHB2), sequence (Q99623 1-194): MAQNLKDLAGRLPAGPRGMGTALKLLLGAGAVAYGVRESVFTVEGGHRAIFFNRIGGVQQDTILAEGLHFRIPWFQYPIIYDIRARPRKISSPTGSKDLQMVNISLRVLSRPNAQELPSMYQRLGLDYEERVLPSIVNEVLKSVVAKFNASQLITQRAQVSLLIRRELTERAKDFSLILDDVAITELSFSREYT

MuSK(h), sequence (O15146 whole entry): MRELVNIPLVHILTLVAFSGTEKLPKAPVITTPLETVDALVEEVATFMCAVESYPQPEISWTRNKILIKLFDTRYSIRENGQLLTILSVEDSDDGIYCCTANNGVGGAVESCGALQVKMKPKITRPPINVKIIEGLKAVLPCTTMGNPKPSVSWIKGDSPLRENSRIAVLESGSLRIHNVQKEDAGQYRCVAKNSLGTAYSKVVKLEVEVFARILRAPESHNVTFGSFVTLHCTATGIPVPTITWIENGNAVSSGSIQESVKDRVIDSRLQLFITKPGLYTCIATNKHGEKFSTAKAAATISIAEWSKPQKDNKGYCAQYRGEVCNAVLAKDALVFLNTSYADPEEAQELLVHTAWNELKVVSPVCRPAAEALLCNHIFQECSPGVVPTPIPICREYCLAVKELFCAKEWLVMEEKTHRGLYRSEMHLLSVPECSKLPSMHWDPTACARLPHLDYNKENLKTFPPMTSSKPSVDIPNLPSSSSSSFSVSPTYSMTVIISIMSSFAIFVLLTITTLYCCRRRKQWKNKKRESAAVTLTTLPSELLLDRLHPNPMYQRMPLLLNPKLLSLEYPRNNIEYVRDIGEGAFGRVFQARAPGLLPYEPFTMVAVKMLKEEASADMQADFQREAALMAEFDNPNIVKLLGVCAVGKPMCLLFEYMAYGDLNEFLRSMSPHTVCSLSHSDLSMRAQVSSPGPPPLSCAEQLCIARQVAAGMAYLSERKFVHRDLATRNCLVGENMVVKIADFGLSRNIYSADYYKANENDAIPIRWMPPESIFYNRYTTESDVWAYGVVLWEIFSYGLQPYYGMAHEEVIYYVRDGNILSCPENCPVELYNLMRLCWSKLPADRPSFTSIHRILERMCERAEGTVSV
T1 sequence (O14965 whole entry): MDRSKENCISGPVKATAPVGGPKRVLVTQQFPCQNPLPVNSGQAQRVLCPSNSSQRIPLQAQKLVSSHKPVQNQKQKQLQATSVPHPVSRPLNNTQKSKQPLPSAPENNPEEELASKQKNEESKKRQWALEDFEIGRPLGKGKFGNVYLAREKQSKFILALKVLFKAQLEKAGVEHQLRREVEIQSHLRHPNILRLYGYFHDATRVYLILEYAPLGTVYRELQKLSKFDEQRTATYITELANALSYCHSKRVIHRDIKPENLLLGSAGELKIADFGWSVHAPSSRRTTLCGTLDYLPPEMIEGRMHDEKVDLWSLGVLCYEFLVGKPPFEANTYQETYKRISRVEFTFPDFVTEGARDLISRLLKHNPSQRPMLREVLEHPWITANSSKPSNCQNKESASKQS
EphA2(h), sequence (P29317 whole entry): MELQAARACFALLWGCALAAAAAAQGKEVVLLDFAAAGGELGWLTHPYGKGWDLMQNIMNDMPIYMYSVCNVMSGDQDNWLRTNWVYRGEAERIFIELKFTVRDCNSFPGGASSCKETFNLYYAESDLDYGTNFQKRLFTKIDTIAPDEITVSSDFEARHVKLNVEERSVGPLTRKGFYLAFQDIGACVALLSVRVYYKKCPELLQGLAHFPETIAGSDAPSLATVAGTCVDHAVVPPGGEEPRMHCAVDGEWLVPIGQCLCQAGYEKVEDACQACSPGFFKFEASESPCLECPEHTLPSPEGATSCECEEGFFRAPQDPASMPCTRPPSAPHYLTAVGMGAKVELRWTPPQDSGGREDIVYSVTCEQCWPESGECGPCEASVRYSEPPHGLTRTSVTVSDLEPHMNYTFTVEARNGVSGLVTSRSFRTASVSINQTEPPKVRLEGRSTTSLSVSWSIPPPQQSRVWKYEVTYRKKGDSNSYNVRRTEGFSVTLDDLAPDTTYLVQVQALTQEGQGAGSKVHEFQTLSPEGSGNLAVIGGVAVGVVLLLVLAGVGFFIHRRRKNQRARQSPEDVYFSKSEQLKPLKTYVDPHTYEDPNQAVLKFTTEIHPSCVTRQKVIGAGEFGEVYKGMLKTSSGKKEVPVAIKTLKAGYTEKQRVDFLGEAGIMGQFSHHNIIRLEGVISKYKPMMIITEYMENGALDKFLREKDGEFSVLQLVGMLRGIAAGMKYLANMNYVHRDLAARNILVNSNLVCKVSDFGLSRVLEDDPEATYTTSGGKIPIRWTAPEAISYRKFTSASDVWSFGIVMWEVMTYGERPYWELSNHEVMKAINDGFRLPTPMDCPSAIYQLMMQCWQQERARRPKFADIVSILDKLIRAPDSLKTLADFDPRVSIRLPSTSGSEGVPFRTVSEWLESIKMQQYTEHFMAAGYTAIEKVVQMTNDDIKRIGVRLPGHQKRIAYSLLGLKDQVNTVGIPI
T2 sequence (Q15759 whole entry): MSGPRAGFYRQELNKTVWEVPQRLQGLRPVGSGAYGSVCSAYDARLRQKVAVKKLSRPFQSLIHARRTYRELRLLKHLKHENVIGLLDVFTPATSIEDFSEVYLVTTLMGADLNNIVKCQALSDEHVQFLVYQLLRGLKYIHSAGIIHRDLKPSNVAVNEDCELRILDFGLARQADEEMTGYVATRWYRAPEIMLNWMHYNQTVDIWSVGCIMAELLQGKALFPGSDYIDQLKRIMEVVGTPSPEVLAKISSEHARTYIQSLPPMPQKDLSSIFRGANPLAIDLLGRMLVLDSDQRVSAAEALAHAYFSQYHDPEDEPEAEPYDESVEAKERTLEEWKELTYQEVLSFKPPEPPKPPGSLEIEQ
CDK16/cyclinY(h), sequence (Q00536 whole entry): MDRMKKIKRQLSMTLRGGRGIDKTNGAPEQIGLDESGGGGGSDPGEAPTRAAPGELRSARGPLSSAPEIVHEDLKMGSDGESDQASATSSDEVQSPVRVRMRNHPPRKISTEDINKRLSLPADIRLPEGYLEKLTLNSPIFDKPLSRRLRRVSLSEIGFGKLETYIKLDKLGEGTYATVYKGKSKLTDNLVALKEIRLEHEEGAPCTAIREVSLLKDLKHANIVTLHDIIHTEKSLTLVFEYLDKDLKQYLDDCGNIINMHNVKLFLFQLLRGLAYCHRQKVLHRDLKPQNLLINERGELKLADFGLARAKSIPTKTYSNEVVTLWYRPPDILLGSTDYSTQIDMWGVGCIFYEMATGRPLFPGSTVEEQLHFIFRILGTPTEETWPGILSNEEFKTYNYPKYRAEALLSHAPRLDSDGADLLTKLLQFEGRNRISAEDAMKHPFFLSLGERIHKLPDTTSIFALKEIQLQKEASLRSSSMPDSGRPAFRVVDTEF
CDK16/cyclinY(h), sequence (Q8ND76 whole entry partner): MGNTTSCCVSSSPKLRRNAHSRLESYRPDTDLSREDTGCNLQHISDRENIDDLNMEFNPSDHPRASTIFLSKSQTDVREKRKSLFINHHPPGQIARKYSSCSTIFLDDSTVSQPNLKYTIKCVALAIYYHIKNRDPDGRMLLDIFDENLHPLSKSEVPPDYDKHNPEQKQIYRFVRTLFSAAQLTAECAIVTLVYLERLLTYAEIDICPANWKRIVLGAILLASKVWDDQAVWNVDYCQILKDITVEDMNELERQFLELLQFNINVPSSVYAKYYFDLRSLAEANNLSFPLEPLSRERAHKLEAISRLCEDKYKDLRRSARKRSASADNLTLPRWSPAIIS
T3 sequence (Q05397 whole entry): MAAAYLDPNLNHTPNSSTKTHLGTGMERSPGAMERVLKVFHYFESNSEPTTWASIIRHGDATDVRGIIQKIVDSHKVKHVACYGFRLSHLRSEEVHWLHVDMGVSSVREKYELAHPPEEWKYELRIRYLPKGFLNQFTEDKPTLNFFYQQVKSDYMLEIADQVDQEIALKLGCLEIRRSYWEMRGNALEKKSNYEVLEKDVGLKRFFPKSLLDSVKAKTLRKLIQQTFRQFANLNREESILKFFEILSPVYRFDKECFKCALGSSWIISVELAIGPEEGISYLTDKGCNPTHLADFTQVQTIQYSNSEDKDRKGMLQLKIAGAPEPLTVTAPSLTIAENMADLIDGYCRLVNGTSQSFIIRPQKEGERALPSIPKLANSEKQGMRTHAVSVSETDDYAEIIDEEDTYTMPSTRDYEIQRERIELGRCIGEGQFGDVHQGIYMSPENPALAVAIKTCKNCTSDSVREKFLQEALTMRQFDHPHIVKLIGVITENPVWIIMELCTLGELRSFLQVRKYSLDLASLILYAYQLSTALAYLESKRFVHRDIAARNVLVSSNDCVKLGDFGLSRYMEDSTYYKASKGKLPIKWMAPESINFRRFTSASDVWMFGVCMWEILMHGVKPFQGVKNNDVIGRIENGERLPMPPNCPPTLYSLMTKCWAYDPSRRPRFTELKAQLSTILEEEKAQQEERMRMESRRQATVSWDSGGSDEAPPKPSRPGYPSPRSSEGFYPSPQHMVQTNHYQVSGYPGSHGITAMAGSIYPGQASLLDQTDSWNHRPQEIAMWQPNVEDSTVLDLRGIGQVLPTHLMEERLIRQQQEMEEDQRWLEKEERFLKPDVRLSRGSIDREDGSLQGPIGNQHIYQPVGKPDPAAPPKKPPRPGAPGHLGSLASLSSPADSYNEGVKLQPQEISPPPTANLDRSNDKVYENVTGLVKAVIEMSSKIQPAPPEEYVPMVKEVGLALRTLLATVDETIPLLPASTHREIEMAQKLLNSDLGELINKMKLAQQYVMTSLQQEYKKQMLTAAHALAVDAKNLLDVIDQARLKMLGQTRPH

Compound `C1=C(c2nc(-c3cnn(C4CCNCC4)c3)cn3cc(-c4ccccc4)nc23)CCOC1` [YL-939] has a remaining activity at 10 µM (Aurora-A(h)) of 111%, a remaining activity at 10 µM (SRMS(h)) of 122% and a remaining activity at 10 µM (Flt4(h)) of 85%. The remaining activity at 10 µM (SLK(h)) was 70%, the remaining activity at 10 µM (EphA2(h)) was 82% and the remaining activity at 10 µM (SAPK2b(h)) was 84%. For the same compound, the remaining activity at 10 µM (TNIK(h)) was 56%, the remaining activity at 10 µM (TGFBR1(h)) was 101% and the remaining activity at 10 µM (LRRK2(h)) was 103%. For the same compound, the remaining activity at 10 µM (FAK(h)) was 112%, the remaining activity at 10 µM (MuSK(h)) was 88% and the remaining activity at 10 µM (CDK16/cyclinY(h)) was 80%. The remaining activity at 10 µM (VRK2(h)) was 92%, the remaining activity at 10 µM (CK2(h)) was 97% and the remaining activity at 10 µM (MAPKAP-K2(h)) was 92%. The remaining activity at 10 µM (MSK2(h)) was 90%, the remaining activity at 10 µM (CDK12/cyclinK(h)) was 99% and the Kd (prohibitin 2 (PHB2)) was 3.43 µM.
